The subject of one assay is IDE. Nature of the assay: IDE mRNA expression in HMO6 human microglial cells (qPCR). The format is cell-based. As for the experimental part: HMO6 human microglial cell line was kindly provided by Dr. SU Kim (Chung-Ang University, Korea). HMO6 cells were grown in Dulbecco's Modified Eagle's Medium (DMEM) (Hyclone, USA) supplemented with 10% fetal bovine serum, 100 U/ml penicillin, and 100 μg/ml streptomycin (Invitrogen, USA). Cultures were maintained under 5% CO2 at 37° C. in tissue culture flasks. Cells were grown to >90% confluency and subjected to no more than 20 cell passages. Medium was changed every 2-3 days. Subconfluent cells were harvested and seeded at a density of 5×10^5 cells or 5×10^6 cells in poly-L-lysine-coated 35-mm or 60-mm culture plates. After 24 h of plating, the medium was replaced with serum-free DMEM, washed once with phosphate buffered saline (PBS), and treated with Rg3 or Aβ42.
Total RNA extracts from HMO6 cells or perfused brain tissue were prepared using the Trizol method (Invitrogen). cDNA was synthesized from RNA by reverse transcription of 1 μg total RNA using the Improm-II reverse transcription system (Promega, Wis., USA) and oligo dT primers in a total volume of 20 μl. PCR amplification was performed using the primers listed in Table 1 (Bioneer, Korea). qPCR reactions were run on a Rotor-Gene 6000 (Corbett Research, Sydney, Australia) using a SensiMix™ SYBR Hi-ROX Kit (Bioline, UK) in 20 μl reaction mixtures. Each real-time-PCR master mix contained 10 μl 2× enzyme master mix, 7 μl RNase free water, 1 μl of each primer (10 pM each), and 1 μl diluted template. The PCR was performed with an initial pre-incubation step for 15 min at 95° C., followed by 45 cycles of 95° C. for 15 s, annealing at 52° C. for 15 s, and extension at 72° C. for 10 s. […] Relative sample expression levels were calculated using Rotor-Gene 6000 Series Software 1.7 and were expressed relative to β-actin for mice or glyceraldehyde 3-phosphate dehydrogenase for HMO6 cells and corrected for between-run variability. Data for the experimental samples are expressed as a percentage of the internal control gene. […]
(Real-time PCR tracks product formation cycle by cycle.)

A further assay deals with p38. The experiment in a line: p38 phosphorylation in HMO6 cells (western blot). The format is cell-based, human. The following applies: Rg3 5 μg/ml, western blot (FIG. 18). As for the experimental part: FIG. 18 is a photograph showing a result of western blot analysis for confirming the degree of phosphorylation of ERK (extracellular-regulated kinase) and p38, according to an embodiment of the present invention. Depending on the presence of Rg3, the levels of phospho-ERK and phospho-p38 protein were investigated by immune-blotting. HMO6 cells were treated with Rg3 (5 μg/ml) after plated on 60 mm cell culture plates and western blot analysis was performed after the cells were placed in phenol red negative/sere-free DMEM medium for 1 h. The western blot analysis was carried out three times independently.
HMO6 cells were lysed in 1% RIPA buffer containing protease and phosphatase inhibitors (Roche, Mannheim, Germany) and whole-cell lysates were separated on 10% sodium dodecyl sulfate-polyacrylamide gel electrophoresis. After electrophoresis, the proteins were transferred to polyvinylidene fluoride membranes, and the membranes were blocked with 5% skim milk in Tris-buffered saline solution containing 0.1% Tween-20. The membranes were then immunoblotted with primary antibodies, anti-phospho-p38, anti-p38, anti-phospho-ERK, anti-ERK, and anti-f3-actin (Santa Cruz Biotechnology, USA), followed by incubation with horseradish peroxidase-conjugated anti-rabbit or anti-mouse secondary antibodies (Stressgen, USA). Blots were developed using an enhanced chemiluminescent solution (Thermo, USA).
(In general: Immunoblotting shows a protein as a band on a membrane.)

In another assay the test system is caveolin1. The experiment in a line: Caveolin1 mRNA expression in HMO6 human microglial cells (qPCR). Format: cell-based. The note with it: Aβ42 (5 μM) and/or Rg3 (2.5 or 5 μg/ml), 24 h (FIG. 15A-B). As for the experimental part:
(§1) FIG. 15 is a graph showing a change in the expression of caveolin-1, caveolin-2, clathrin, neprilysin (NEP), insulin-degrading enzyme (IDE) according to treating Aβ and/or ginsenoside Rg3 to HMO6 human microglial cells. HMO6 cells were plated on 35 mm cell culture plates or chamber slides and Aβ42 (5 μM) and/or Rg3 (2.5 or 5 μg/ml) were treated for 24 h. Then, the mRNA expression was determined by quantitative RT-PCR. The expression of caveolin (A-B), clathrin (C) which are endocytosis-related genes and NEP (D) and IDE (E) which are genes encoding Aβ-degrading enzymes were compared depending on the presence or absence of Rg3/Aβ42. The results are shown as mean±SD. * P<0.05, ** P<0.01, *** P<0.001. […]
(§2) Total RNA extracts from HMO6 cells or perfused brain tissue were prepared using the Trizol method (Invitrogen). cDNA was synthesized from RNA by reverse transcription of 1 μg total RNA using the Improm-II reverse transcription system (Promega, Wis., USA) and oligo dT primers in a total volume of 20 μl. […] Relative sample expression levels were calculated using Rotor-Gene 6000 Series Software 1.7 and were expressed relative to β-actin for mice or glyceraldehyde 3-phosphate dehydrogenase for HMO6 cells and corrected for between-run variability. Data for the experimental samples are expressed as a percentage of the internal control gene. […]

The next assay has as its system clathrin. The experiment in a line: Clathrin mRNA expression in HMO6 human microglial cells (qPCR). The format is cell-based. The following applies: Aβ42 (5 μM) and/or Rg3 (2.5 or 5 μg/ml), 24 h (FIG. 15C). As for the experimental part: as §1, §2
The subject of another assay is HMO6 cells. The experiment in a line: Uptake of FITC-labeled Aβ42 in HMO6 cells (live-cell imaging). The format is cell-based, human. The following applies: HMO6 cells pre-treated with Rg3 5 μg/ml for 20 h, after 30 min, persisted for 6 h (FIG. 21). As for the experimental part:
The stably transfected HM06.hSRA cells prepared in Example 5-5 were plated into 96-well plates at 5000 cells/well to analyze Aβ uptake. […] […] Fluorescence intensities represented the number of cells (count/mm^2) over the time to quantify cells with FITC-labeled Aβ42 peptides. Aβ42 uptake was calculated using the following equation (FIG. 21):

[1] abbreviates: Rg3-treated HMO6 cells (FIG. 14).

With `CC(C)=CCC[C@](C)(O)[C@H]1CC[C@]2(C)[C@@H]1[C@H](O)C[C@@H]1[C@@]3(C)CC[C@H](O[C@@H]4O[C@H](CO)[C@@H](O)[C@H](O)[C@H]4O[C@@H]4O[C@H](CO)[C@@H](O)[C@H](O)[C@H]4O)C(C)(C)[C@@H]3CC[C@]12C` [ginsenoside Rg3], the “IDE mRNA” value in the assay with IDE (HMO6 cells, Aβ42 (5 μM) and/or Rg3 (2.5 or 5 μg/ml), 24 h (FIG. 15E)) was “increased significantly”. For the same compound, in the assay with IDE (setting [1]), the “IDE expression versus untreated control group” value is “about six-fold higher” and the “IDE mRNA expression” value was “dose-dependently increased”. Also, the “phosphorylation of p38” value in the assay with p38 is “promoted the phosphorylation”. Moreover, the “caveolin1-mediated Aβ42 endocytosis (caveolin mRNA)” value in the assay with caveolin1 was “promoted Aβ42 uptake into HMO6 cells via a caveolin1 and clathrin-mediated endocytic mechanism”. In the assay with clathrin, the “clathrin-mediated Aβ42 endocytosis (clathrin mRNA)” value was “promoted Aβ42 uptake into HMO6 cells via a caveolin1 and clathrin-mediated endocytic mechanism”. Further, in the assay on HMO6 cells, the Aβ42 uptake result was “increased Aβ42 uptake significantly”.

Values taken from patent US20160022751A1, “NOVEL COMPOSITION FOR TREATING ALZHEIMER'S DISEASE AND IMPROVING COGNITIVE FUNCTION OF ALZHEIMER'S PATIENTS” (GANGNEUNG-WONJU NATIONAL UNIVERSITY INDUSTRY ACADEMY …, priority 2014, published 2016).
